Calls of active or inactive are those of the source. The rule behind the calls is not given here.
How the values were obtained:
[1] = Inhibition of bovine kidney beta-N-acetylglucosaminidase by pNP-GlcNAc substrate hydrolysis assay; set-up: species or system Bos taurus
[2] = Inhibition of jack bean beta-N-acetylglucosaminidase by pNP-GlcNAc substrate hydrolysis assay; set-up: species or system Canavalia ensiformis
Prunus dulcis = experiment: Inhibition of almond beta-glucosidase at 2.38 uM by pNP-beta-Glc substrate hydrolysis assay
[3] = Competitive inhibition of Spodoptera litura beta-N-acetylglucosaminidase by pNP-GlcNAc substrate hydrolysis assay
[4] = Competitive inhibition of jack bean beta-N-acetylglucosaminidase by pNP-GlcNAc substrate hydrolysis assay; set-up: species or system Canavalia ensiformis
[5] = Mixed type inhibition of Penicillium oxalicum beta-N-acetylglucosaminidase by pNP-GlcNAc substrate hydrolysis assay
[6] = Noncompetitive inhibition of bovine kidney beta-N-acetylglucosaminidase by pNP-GlcNAc substrate hydrolysis assay; set-up: species or system Bos taurus
[7] = Inhibition of Penicillium oxalicum beta-N-acetylglucosaminidase by pNP-GlcNAc substrate hydrolysis assay
Saccharomyces cerevisiae = experiment: Inhibition of yeast alpha-glucosidase at 2.38 uM by […] substrate hydrolysis assay
[8] = Inhibition of Aspergillus oryzae beta-N-acetylglucosaminidase by pNP-GlcNAc substrate hydrolysis assay
Bacillus sp. = experiment: Inhibition of Bacillus sp. chitinase at 209 uM by pNP-GlcNAc2 substrate hydrolysis assay
[9] = Inhibition of Spodoptera litura beta-N-acetylglucosaminidase by pNP-GlcNAc substrate hydrolysis assay
[10] = Noncompetitive inhibition of Aspergillus oryzae beta-N-acetylglucosaminidase by pNP-GlcNAc substrate hydrolysis assay
[11] = Competitive inhibition of Aspergillus oryzae beta-N-acetylglucosaminidase by pNP-GlcNAc substrate hydrolysis assay
[12] = Competitive inhibition of bovine kidney beta-N-acetylglucosaminidase by pNP-GlcNAc substrate hydrolysis assay; set-up: species or system Bos taurus
[13] = Competitive inhibition of Penicillium oxalicum beta-N-acetylglucosaminidase by pNP-GlcNAc substrate hydrolysis assay

Row | Ki [1] | Ki [2] | Ki [11] | Ki [12] | Ki [13] | Compound | IC50 [1] | IC50 [2] | Activity (Prunus dulcis) | Ki [3] | Ki [4] | Ki [5] | Ki [6] | IC50 [7] | Activity (Saccharomyces cerevisiae) | IC50 [8] | Activity (Bacillus sp.) | IC50 [9] | Ki [10]
1 |  |  |  |  |  | CC(=O)NC[C@H]1[C@H](O)[C@H](O)[C@@H]2[C@H](O)C[C@@H](CO)N21 (relative stereo) [POCHONICINE] | 1.06 nM | 0.288 nM | inactive | 1.77 nM | 0.162 nM | 13.2 nM | 1.04 nM | 42.1 nM | inactive | 20.3 nM | inactive | 5.96 nM | 141 nM
2 | 9800 nM | 1900 nM |  |  |  | CC(=O)NC[C@H]1N[C@H](CO)[C@@H](O)[C@@H]1O |  |  |  |  |  |  |  |  |  |  |  |  | 
3 | 68600 nM | 3600 nM |  |  |  | CC(=O)NC[C@@H]1N[C@H](CO)[C@@H](O)[C@@H]1O |  |  |  |  |  |  |  |  |  |  |  |  | 
4 |  |  | 9.69 nM | 1.64 nM | 8.11 nM | CC(=O)N[C@H]1c2nc(CC(=O)O)cn2[C@H](CO)[C@H](O)[C@@H]1O [NAGSTATIN] | 1.71 nM |  |  | 1.1 nM | 1.41 nM |  |  | 60.6 nM |  | 10.6 nM |  | 5.85 nM | 
